Legend:
hippocampal neurons = assay: Synaptic density (vGLUT1/PSD95) in cultured hippocampal neurons; format: cell-based, mouse
Description: (§1) Immunocytochemistry. […] NIS element software was used for image analysis. “Objective Count” dialog was used for intensity measurement. […] The overlapped dots represent synapses.
Primary hippocampal neuron culture. Hippocampal neuron cultures were prepared as previously described (15). In brief, mouse hippocampi were dissected from postnatal day 0-1 pups in cold HBSS. Cells were dissociated by using 0.025% trypsin at 37° C. for 15 minutes, followed by 10 times homogenization in ice cold DMEM. Dissociated cells were then passed through a 100 μm cell strainer (Corning) and centrifuged for 5 minutes at 210×g. The pellet was gently resuspended in neuron culture medium (Neurobasal A with 2% B27 supplement, 0.5 mM L-glutamine, Invitrogen) and plated on poly-D-lysine (Sigma-Aldrich) coated Lab-Tek chamber slides (Nunc, 177445) with appropriate densities.
Agonist treatment on primary cultured neurons. At 14 days in vitro (DIV14) hippocampal neurons were exposed to the synthetic growth hormone secretagogue receptor agonist MK0677 (Tocris, #5272, 1.5 μM) the dopamine D1-like receptor agonist SKF81297 (Sigma-Aldrich, #S143, 2 μM) or a mixture of MK0677 and SKF81297 for 5 minutes. The exposure was followed by immunostaining to examine the effects of Ghsr1α/Drd1 co-activation on Aβ induced synaptic loss or Ghsr1α/Drd1, Aβ/Ghsr1α interaction as described in previous sections.

5×FAD mice [1] = assay: Morris water maze test; settings: MK0677 1.5 mg/kg, daily i.p., one month
Description: Mice and agonist treatment. […] Mice were used in pairs of age-matched non-transgenic mice (non-TG). Genotypes of animals were confirmed using PCR and/or amyloid plaque staining. The number of mice used was determined by previous data and calculations to ensure that the minimal number of mice as required was used in these experiments. […] Mouse body weight was recorded every five days until euthanasia. After the 1-month treatment, the mice were subjected to the Morris water maze behavioral test and then euthanized for tissue collection following IACUC-approved procedures.
Mouse behavioral test. The Morris water maze test was performed as previously described in order to test changes in mouse spatial learning and memory [3, 50]. Mice were randomly grouped by gender, genotypes and treatments (which the experimenter was blind to) and then transferred to the testing environment at least 0.5 hours before tests. During the test, mice were trained to find a hidden platform (20 cm diameter) in an open swimming pool (200 cm diameter) filled with 21° C. water (non-toxic white dye was used to hide the platform). Four trials were performed each day for 12 days. Each trial started at a different position (NW, N, E, SE) while the platform was kept in the same location (SW). […] Probe results were analyzed using the platform location crossed frequency value.

5×FAD mice [2] = assay: Synaptic density in hippocampal CA1 region of treated mice; format: in vivo, mouse; settings: MK0677 1.5 mg/kg, daily i.p., one month
Description: as §1
Synaptic density analysis. For synaptic density analysis, vesicular glutamate transporter 1(vGlutl)- and postsynaptic density 95 (PSD95)-stained channels were saved as two binary layers, the threshold for each channel defined separately and then applied to all the images. The overlapping areas were analyzed by using the “AND” operation in the “Binary Operation” dialogs of NIS element software. Hippocampal volume was measured as described in the previous section (amyloid plaque deposition analysis). The overlapping dots represent synapses and average synapse number per selected area volume was calculated to represent synaptic density.

What does the source list for CC(C)(N)C(=O)N[C@H](COCc1ccccc1)C(=O)N1CCC2(CC1)CN(S(C)(=O)=O)c1ccccc12 [MK0677]?
synaptic density / oligomeric Aβ42-induced synapse loss (hippocampal neurons; oligomeric Aβ42 1 μM, 24 hours, 1.5 μM MK0677, 2 μM SKF81297, or in combination): did not mitigate; synaptic density, agonist alone (hippocampal neurons; without oligomeric Aβ42, MK0677 at doses greater than 1.5 μM, SKF81297 2 μM): substantially promoted synaptic formation; spatial reference learning and memory (genotypic cognitive impairment) (5×FAD mice [1]): failed to show any protective effect; synaptic density, non-TG saline vs MK0677 (5×FAD mice [2]): no significant difference; synaptic loss in CA1 region, 5×FAD mice (5×FAD mice [2]): not significantly attenuated
